Like-named read-outs stand apart in the source and are kept apart here.
What was measured:
[1] = system: liver cholesterol; experiment: Liver cholesterol clearing activity in cholesterol pre-fed rabbits; assay type: in vivo; details: 4 months; for Liver Cholesterol / Liver Cholesterol Free/Ester Ratio / Liver Phospholipids / Liver Total Lipids / Liver/Body Weight % Change: n = 5
[2] = system: α/β cholesterol ratio; experiment: Lipoprotein changes produced by one dose in a Cynomolgus monkey; assay type: in vivo; details: for α/β cholesterol ratio: 250 mg/kg p.o.
[3] = system: aorta cholesterol; experiment: Aorta cholesterol clearing activity in cholesterol pre-fed rabbits; assay type: in vivo; details: 4 months; for Aortic Cholesterol Free/Ester Ratio / Aortic Cholesterol, Arch / Aortic Cholesterol, Thoracic / Aortic Cholesterol, Total / Aortic Phospholipids, Arch / Aortic Phospholipids, Thoracic / Aortic Phospholipids, Total: n = 5
[4] = system: lipoproteins; experiment: Effect on lipoproteins from 5 treated human patients; assay type: in vivo; details: for HDL2 Cholesterol / HDL2 Free/Total Cholesterol ratio / HDL3 Cholesterol / HDL3 Free/Total Cholesterol ratio / LDL Cholesterol / LDL Free/Total Cholesterol ratio / VLDL Cholesterol / VLDL Free/Total Cholesterol ratio: n = 5; for HDL2 Free/Total Cholesterol ratio, % change / HDL3 Cholesterol, % change / HDL3 Free/Total Cholesterol ratio, % change / VLDL Free/Total Cholesterol ratio, % change: vs pre-test
Protocol: Five human patients were treated over several days with either 5 mg/kg or 10 mg/kg of compound 16 (Table XV). […] It is generally recognized that an increase in free cholesterol ratio is indicative of an increased clearing or turnover of the lipoprotein cholesterol (Schwartz, C. C. Biochem. Biophys. Acta 663:143-162, 1981).

[5] = system: lipid metabolism; experiment: Effects of diphosphonates on lipid metabolism in normal rats (serum lipids, α/β cholesterol); assay type: in vivo, male Wistar rats; details: for change in vivo at 200 mg/kg/day: Rattus norvegicus, po, normal rats (N), 200 mg/kg/day p.o.
Outline: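 Normal male Wistar rats (~200 g, 4–5/group) dosed orally with diphosphonates 200 mg/kg/day for 4–21 days, in 24 mM bicarbonate buffer or corn oil. Serum taken after overnight fast; free fatty acids, triglycerides, phospholipids and heparin/CaCl2-precipitated β-lipoprotein cholesterol measured. Values given as % of control; <15% difference deemed non-significant.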

[6] = system: renin; experiment: Renin activity in Cynomolgus monkeys fed simultaneously a high cholesterol diet; assay type: in vivo; details: for Renin Activity: n = 7
Protocol: | Dose: 25 mg d.i.d. per day

[7] = system: blood pressure; experiment: Cardiovascular changes (blood pressure, heart rate) produced by one dose in a Cynomolgus monkey; assay type: in vivo; details: for Blood pressure / Heart Rate: 250 mg/kg p.o.
[8] = system: alpha/beta cholesterol ratio; experiment: Comparison of clofibrate, gemfibrozil and fenofibrate to compound 16: alpha/beta cholesterol ratio in normal Wistar rats; assay type: in vivo; details: 100 mg/kg for 10 days, n = 5
Protocol: It should be noted that these diphosphonate compounds are different and novel in comparison to the classical hypolipidemic compounds as illustrated in Table V. The diphosphonate ester used for comparison was the only one to increase the alpha/beta cholesterol ratio in control rats.
Each drug was administered at 100 mg/kg for 10 days

[9] = simultaneous cholesterol-compound 16 treatment

For `COP(=O)(OC)OC(c1ccc(Cl)cc1)P(=O)(OC)OC` (stereo not drawn) [Compound 16, Dimethyl α(dimethoxyphosphinyl) p-chlorobenzyl phosphate], the “Liver Cholesterol” value ([1]; 100 mg/kg/day) was 3.1 ± 1.2 mg/g, the “Liver Cholesterol Free/Ester Ratio” value ([1]; 100 mg/kg/day) was 2.23 ± 0.27 and the “Liver Phospholipids” value ([1]; 100 mg/kg/day) was 20.7 ± 2.7 mg/g. The “Liver Total Lipids” value ([1]; 100 mg/kg/day) was 20.5 ± 3.4 mg/g, the “Liver/Body Weight % Change” value ([1]; 100 mg/kg/day) was “+8%” and the “Liver Cholesterol” value ([1]; 200 mg/kg/day) was 3.9 ± 1.4 mg/g. For the same molecule, the “Liver Cholesterol Free/Ester Ratio” value ([1]; 200 mg/kg/day) was 2.24 ± 0.46, the “Liver Phospholipids” value ([1]; 200 mg/kg/day) was 26.3 ± 3.1 mg/g and the “Liver Total Lipids” value ([1]; 200 mg/kg/day) was 25.9 ± 2.9 mg/g. The “Liver/Body Weight % Change” value ([1]; 200 mg/kg/day) was “+12%”, the “pre-established cholesterol deposits, liver” value ([1]; cholesterol pre-fed rabbits) was “effectively decreased the pre-established cholesterol deposits” and the α/β cholesterol ratio ([2]; +1h) was 0.71. For the same molecule, the α/β cholesterol ratio ([2]; +2h) was 0.82, the α/β cholesterol ratio ([2]; +3h) was 0.83 and the α/β cholesterol ratio ([2]; +5h) was 0.89. For the same molecule, the α/β cholesterol ratio ([2]; +6h) was 0.92, the α/β ratio ([2]; additional administration, 5 days) was 0.88 and the “increase in α/β cholesterol levels” value ([2]; single oral dose 250 mg/kg, 6 hours) was 39%. The “Aortic Cholesterol Free/Ester Ratio” value ([3]; 100 mg/kg/day) was 0.5 ± 0.1, the “Aortic Cholesterol, Arch” value ([3]; 100 mg/kg/day) was 17.9 ± 2.9 mg/g and the “Aortic Cholesterol, Thoracic” value ([3]; 100 mg/kg/day) was 10.6 ± 2.8 mg/g. The “Aortic Cholesterol, Total” value ([3]; 100 mg/kg/day) was 20.8 ± 6.5 mg/Aorta, the “Aortic Phospholipids, Arch” value ([3]; 100 mg/kg/day) was 4.6 ± 1.4 mg/g and the “Aortic Phospholipids, Thoracic” value ([3]; 100 mg/kg/day) was 4.5 ± 1.5 mg/g. For the same molecule, the “Aortic Phospholipids, Total” value ([3]; 100 mg/kg/day) was 6.5 ± 1.6 mg/Aorta, the “Aortic Cholesterol Free/Ester Ratio” value ([3]; 200 mg/kg/day) was 0.4 ± 0.1 and the “Aortic Cholesterol, Arch” value ([3]; 200 mg/kg/day) was 22.8 ± 3.4 mg/g. For the same molecule, the “Aortic Cholesterol, Thoracic” value ([3]; 200 mg/kg/day) was 11.0 ± 4.2 mg/g, the “Aortic Cholesterol, Total” value ([3]; 200 mg/kg/day) was 18.3 ± 6.7 mg/Aorta and the “Aortic Phospholipids, Arch” value ([3]; 200 mg/kg/day) was 5.9 ± 1.3 mg/g. For the same molecule, the “Aortic Phospholipids, Thoracic” value ([3]; 200 mg/kg/day) was 4.9 ± 1.9 mg/g, the “Aortic Phospholipids, Total” value ([3]; 200 mg/kg/day) was 7.9 ± 1.8 mg/Aorta and the “pre-established cholesterol deposits, aorta” value ([3]; cholesterol pre-fed rabbits) was “effectively decreased the pre-established cholesterol deposits”. The “HDL2 Cholesterol” value ([4]; 5 mg/kg) was 0.82 ± 0.13 mmol/L, the “HDL2 Free/Total Cholesterol ratio” value ([4]; 5 mg/kg) was 0.231 ± 0.027 and the “HDL3 Cholesterol” value ([4]; 5 mg/kg) was 0.72 ± 0.09 mmol/L. The “HDL3 Free/Total Cholesterol ratio” value ([4]; 5 mg/kg) was 0.242 ± 0.018, the “LDL Cholesterol” value ([4]; 5 mg/kg) was 3.05 ± 0.26 mmol/L and the “LDL Free/Total Cholesterol ratio” value ([4]; 5 mg/kg) was 0.304 ± 0.005. The “VLDL Cholesterol” value ([4]; 5 mg/kg) was 0.20 ± 0.03 mmol/L, the “VLDL Free/Total Cholesterol ratio” value ([4]; 5 mg/kg) was 0.472 ± 0.019 and the “HDL2 Free/Total Cholesterol ratio, % change” value ([4]; 5 mg/kg) was “+24%”. For the same molecule, the “HDL3 Cholesterol, % change” value ([4]; 5 mg/kg) was “+36%”, the “HDL3 Free/Total Cholesterol ratio, % change” value ([4]; 5 mg/kg) was “+12%” and the “VLDL Free/Total Cholesterol ratio, % change” value ([4]; 5 mg/kg) was “+14%”. The “HDL2 Cholesterol” value ([4]; 10 mg/kg) was 0.87 ± 0.07 mmol/L, the “HDL2 Free/Total Cholesterol ratio” value ([4]; 10 mg/kg) was 0.221 ± 0.003 and the “HDL3 Cholesterol” value ([4]; 10 mg/kg) was 0.60 ± 0.02 mmol/L. The “HDL3 Free/Total Cholesterol ratio” value ([4]; 10 mg/kg) was 0.285 ± 0.044, the “LDL Cholesterol” value ([4]; 10 mg/kg) was 2.86 ± 0.23 mmol/L and the “LDL Free/Total Cholesterol ratio” value ([4]; 10 mg/kg) was 0.303 ± 0.002. For the same molecule, the “VLDL Cholesterol” value ([4]; 10 mg/kg) was 0.26 ± 0.03 mmol/L, the “VLDL Free/Total Cholesterol ratio” value ([4]; 10 mg/kg) was 0.519 ± 0.031 and the “HDL2 Free/Total Cholesterol ratio, % change” value ([4]; 10 mg/kg) was “+19%”. For the same molecule, the “HDL3 Cholesterol, % change” value ([4]; 10 mg/kg) was “+13%”, the “HDL3 Free/Total Cholesterol ratio, % change” value ([4]; 10 mg/kg) was “+32%” and the “VLDL Free/Total Cholesterol ratio, % change” value ([4]; 10 mg/kg) was “+25%”. The “HDL3-cholesterol” value ([4]; human patients, 5 or 10 mg/kg) was “significant increase”, the “free/total cholesterol ratio in isolated lipoprotein fractions” value ([4]; human patients, 5 or 10 mg/kg) was “significantly elevated” and the change in vivo at 200 mg/kg/day ([5]; read-out: Serum Chol. α/β (% control values)) was 121%. The change in vivo at 200 mg/kg/day ([5]; read-out: Serum Free Fatty Acids (% control values)) was -50%, the change in vivo at 200 mg/kg/day ([5]; read-out: Serum Phospholipids (% control values)) was 26% and the change in vivo at 200 mg/kg/day ([5]; read-out: Serum Triglycerides (% control values)) was < 15%. For the same molecule, the “increased HDL lipids, especially HDL cholesterol” value ([5]; normal rats) was “observed most dramatically”, the “increase in serum phospholipid” value ([5]; rats) was “found to increase” and the “α-cholesterol/β-cholesterol ratio / lipoprotein cholesterol” value ([5]; rats) was “highly significant activity”. For the same molecule, the “Renin Activity” value ([6]; 30 days on high cholesterol diet) was 0.8 ± 0.5 ng AI /ml/h, the “Renin Activity” value ([6]; 60 days on high cholesterol diet) was 1.1 ± 0.2 ng AI /ml/h and the “renin inhibition” value [6, 9] was “essentially completely inhibited”. The “renin inhibition, fold” value [6, 9] was 20 fold, the “decrease of blood pressure” value ([7]; 250 mg/kg oral, six hours period) was “at least 40%” and the Blood pressure ([7]; +1h) was 65 mmHg. For the same molecule, the “Heart Rate” value ([7]; +1h) was 195 beat/min, the Blood pressure ([7]; +2h) was 70 mmHg and the Blood pressure ([7]; +3h) was 100 mmHg. The “Heart Rate” value ([7]; +3h) was 195 beat/min, the Blood pressure ([7]; +5h) was 95 mmHg and the “Heart Rate” value ([7]; +5h) was 210 beat/min. The Blood pressure ([7]; +6h) was 105 mmHg, the “Heart Rate” value ([7]; +6h) was 210 beat/min and the “alpha/beta Cholesterol Ratio” value [8] was 9.69 ± 0.76.

— patent US4416877A, “Anti-atherosclerotic pharmaceutical compositions containing diphosphonate compounds” (priority 1979, dated 1983)
